Measurements reported in US9957271B2, “Substituted bicyclic aza-heterocycles and analogues as sirtuin modulators” (GlaxoSmithKline, LLC, priority 2012, dated 2018).

How the values were obtained:
SIRT1 [1] = target: T1, SIRT1 (Homo sapiens, UniProt Q96EB6); experiment: Trp mass spectrometry assay of SIRT1 activity; format: biochemical; conditions: for Emax: read-out: Trp % Fold Act
T1 sequence (Q96EB6 1-747): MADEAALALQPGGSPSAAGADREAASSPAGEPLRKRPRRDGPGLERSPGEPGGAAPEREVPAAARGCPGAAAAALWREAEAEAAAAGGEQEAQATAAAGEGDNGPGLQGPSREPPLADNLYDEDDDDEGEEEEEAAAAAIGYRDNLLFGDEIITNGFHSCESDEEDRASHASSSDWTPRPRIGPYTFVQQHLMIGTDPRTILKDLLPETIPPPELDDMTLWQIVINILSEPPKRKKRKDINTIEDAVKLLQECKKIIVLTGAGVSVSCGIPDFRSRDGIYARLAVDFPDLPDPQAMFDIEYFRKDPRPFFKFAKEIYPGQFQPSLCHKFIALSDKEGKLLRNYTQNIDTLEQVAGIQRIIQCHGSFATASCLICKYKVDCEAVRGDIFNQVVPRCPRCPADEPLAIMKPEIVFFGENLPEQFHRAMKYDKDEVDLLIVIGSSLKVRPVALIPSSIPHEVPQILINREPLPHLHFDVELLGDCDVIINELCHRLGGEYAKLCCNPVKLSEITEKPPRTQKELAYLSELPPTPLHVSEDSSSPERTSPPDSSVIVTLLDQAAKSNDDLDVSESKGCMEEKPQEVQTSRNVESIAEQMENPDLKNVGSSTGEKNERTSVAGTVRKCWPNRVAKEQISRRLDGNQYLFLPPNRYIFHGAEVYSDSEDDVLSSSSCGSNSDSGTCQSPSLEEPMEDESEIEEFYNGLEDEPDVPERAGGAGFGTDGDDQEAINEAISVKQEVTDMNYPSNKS
How it was run: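 Activation readout: EC1.5 (concentration raising activity 50% over control) and percent maximum activation, from mass-spec quantitation of OAADPR or deacetylated Trp peptide. Reaction: 0.5 μM acetylated Trp peptide, 120 μM βNAD+, 10 nM bacterially expressed N-His SIRT1, pH 7.5 HEPES buffer with […], 25 min at 25° C.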

SIRT1 [2] = target: T1, SIRT1; experiment: TAMRA based mass spectrometry assay of SIRT1 activity; format: biochemical; conditions: for Emax: read-out: TAMRA % Fold Act
How it was run: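 Deacetylation of a biotinylated, TAMRA-tagged p53-based peptide (0.5 μM) by 10 nM His-tagged SIRT1 with 120 μM βNAD+, 25 °C for 25 min, pH 8 Tris-acetate buffer, across a compound concentration range. Quenched by formic acid and read by mass spec as product peptide or OAADPR; activity relative to DMSO reactions, nicotinamide defining maximal inhibition.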

[3] = Trp assay, concentration giving 150% activation of SIRT1
[4] = Trp assay, percent maximum fold activation
[5] = TAMRA assay, concentration giving 150% activation of SIRT1
[6] = TAMRA assay, percent maximum fold activation
[7] = percent maximum fold activation of SIRT1, Trp peptide substrate

Trp EC1.5 (μM) (SIRT1 [1]; [3])	Emax (SIRT1 [1]; [4]) [%]	SMILES	further results
A (EC1.5<1 μM)	≥ 350	COCCOc1nccc(NC(=O)c2cnc3c(C)cc(-c4ccccc4C(F)(F)F)nn23)n1 [Compound 627]	TAMRA EC1.5 (μM) (SIRT1 [2]; [5]): A (EC1.5<1 μM); Emax (SIRT1 [2]; [6]): ≥ 350%
B (EC1.5 1-25 μM)	< 350	Cc1cccc(C(=O)Nc2cnn3ccc(-c4ccccc4OC(F)(F)F)nc23)n1 [Compound 725]	TAMRA EC1.5 (μM) (SIRT1 [2]; [5]): A (EC1.5<1 μM); Emax (SIRT1 [2]; [6]): ≥ 350%
A (EC1.5<1 μM)	≥ 350	Cc1csc(NC(=O)c2c(C)nn3ccc(-c4ccccc4C(F)(F)F)nc23)n1 [Compound 650]	TAMRA EC1.5 (μM) (SIRT1 [2]; [5]): A (EC1.5<1 μM); Emax (SIRT1 [2]; [6]): ≥ 350%
C (EC1.5>25 μM)	< 350	Cc1cnc(C(=O)Nc2cnn3ccc(-c4ccccc4OC(F)(F)F)nc23)s1 [Compound 782]	TAMRA EC1.5 (μM) (SIRT1 [2]; [5]): A (EC1.5<1 μM); Emax (SIRT1 [2]; [6]): ≥ 350%
C (EC1.5>25 μM)	< 350	Cc1cc(C)nc(C(=O)Nc2cnn3ccc(-c4ccccc4OC(F)(F)F)nc23)n1 [Compound 736]	TAMRA EC1.5 (μM) (SIRT1 [2]; [5]): A (EC1.5<1 μM); Emax (SIRT1 [2]; [6]): ≥ 350%
–	–	O=C(Nc1cnc2ccc(-c3ccccc3C(F)(F)F)nn12)c1cncc(N2CCOCC2)n1 [Compound 120]	Trp EC1.5 (μM) (SIRT1 [1]; concentration of test compound giving 150% activation of SIRT1, Trp peptide substrate): B (EC1.5 1-25 μM); Emax (SIRT1 [1]; [7]): ≥ 350%; TAMRA EC1.5 (μM) (SIRT1 [2]; concentration of test compound giving 150% activation of SIRT1, TAMRA peptide substrate): A (EC1.5<1 μM); Emax (SIRT1 [2]; percent maximum fold activation of SIRT1, TAMRA peptide substrate): ≥ 350%
B (EC1.5 1-25 μM)	< 350	Cc1nc(C(=O)Nc2cnn3ccc(-c4ccccc4OC(F)(F)F)nc23)c(C)s1 [Compound 713]	TAMRA EC1.5 (μM) (SIRT1 [2]; [5]): B (EC1.5 1-25 μM); Emax (SIRT1 [2]; [6]): ≥ 350%
B (EC1.5 1-25 μM)	≥ 350	Cc1nc2ccc(-c3cccc(OC[C@H](O)CO)c3)nn2c1C(=O)Nc1ccccn1 [Compound 772, (R)-6-(3-(2,3-dihydroxypropoxy)phenyl)-2-methyl-N-(pyridin-2-yl)imidazo[1,2-b]pyridazine-3-carboxamide]	TAMRA EC1.5 (μM) (SIRT1 [2]; [5]): B (EC1.5 1-25 μM); Emax (SIRT1 [2]; [6]): ≥ 350%
–	–	Cc1cc2ncc(NC(=O)c3cnccn3)n2nc1-c1ccccc1C(F)(F)F [Compound 442]	Trp EC1.5 (SIRT1 [1]; Trp peptide substrate, concentration giving 150% activation of SIRT1): C (EC1.5>25 μM); Emax (SIRT1 [1]; Trp peptide substrate, percent maximum fold activation): < 350%; TAMRA EC1.5 (SIRT1 [2]; TAMRA peptide substrate, concentration giving 150% activation of SIRT1): A (EC1.5<1 μM); Emax (SIRT1 [2]; TAMRA peptide substrate, percent maximum fold activation): ≥ 350%
A (EC1.5<1 μM)	< 350	CCNc1cccc(NC(=O)c2cnc3ccc(-c4ccccc4Cl)nn23)n1 [Compound 326]	TAMRA EC1.5 (μM) (SIRT1 [2]; [5]): A (EC1.5<1 μM); Emax (SIRT1 [2]; [6]): ≥ 350%
–	–	COc1nccc(NC(=O)c2cnn3ccc(N4CCC[C@H]4C(F)(F)F)nc23)n1 [Compound 1024]	Emax (SIRT1 [1]; [7]): ≥ 350%
C (EC1.5>25 μM)	< 350	O=C(Nc1cncnc1)c1cnc2ccc(N3CC[C@H](F)C3)nn12 [Compound 888]	–
–	–	O=C(Nc1cncc(F)c1)c1cnn2ccc(N3CCC[C@H]3C(F)(F)F)nc12 [Compound 1028]	Emax (SIRT1 [1]; [7]): ≥ 350%
B (EC1.5 1-25 μM)	< 350	CN(C)[C@H]1CCN(c2ccc3ncc(C(=O)Nc4cccnc4)n3n2)C1 [Compound 868]	–
A (EC1.5<1 μM)	≥ 350	Cc1ccc(NC(=O)c2c(C)nc3c(OC[C@H](O)CO)cc(-c4ccccc4C(F)(F)F)nn23)cn1 [Compound 865]	–
B (EC1.5 1-25 μM)	< 350	O=C(Nc1ccc(F)cn1)c1cnc2ccc(-c3cccc(OC[C@H](O)CO)c3)nn12 [Compound 884]	–
–	≥ 350	O=C(Nc1ccccn1)c1cnn2ccc(N3CCCC3C(F)(F)F)nc12 (stereo not shown) [Compound 999]	–
–	–	C[C@H]1CCCN1c1ccc2ncc(C(=O)Nc3cccnn3)n2n1 [Compound 1055]	Emax (SIRT1 [1]; [7]): ≥ 350%
B (EC1.5 1-25 μM)	< 350	O=C(Nc1cc(OC[C@@H](O)CO)cnn1)c1cnc2ccc(N3CC[C@H](F)C3)nn12 [Compound 917]	–
–	–	C[C@@H]1CN(c2ccc3ncc(C(=O)Nc4cncc(F)c4)n3n2)CCO1 [Compound 1004]	Emax (SIRT1 [1]; [7]): ≥ 350%
B (EC1.5 1-25 μM)	< 350	O=C(Nc1ncccn1)c1cnc2ccc(N3CC[C@H](F)C3)nn12 [Compound 854]	–
–	–	COc1nccc(NC(=O)c2cnn3ccc(N4CCC(C(F)(F)F)CC4)nc23)n1 [Compound 1064]	Emax (SIRT1 [1]; [7]): ≥ 350%
–	–	Cc1nn2ccc(N3CCC[C@H]3C(F)(F)F)nc2c1C(=O)Nc1ccncn1 [Compound 1048]	Emax (SIRT1 [1]; [7]): ≥ 350%
C (EC1.5>25 μM)	< 350	Cc1nc2ccc(N3CC[C@H](N(C)C)C3)nn2c1C(=O)Nc1ccc(F)cn1 [Compound 872]	–

Trp EC1.5 (μM) (SIRT1 [1]; [3])	Emax (SIRT1 [1]; [4]) [%]	SMILES	further results
–	–	Cc1nn2ccc(N3CCC[C@H]3C(F)(F)F)nc2c1C(=O)Nc1cnccn1 [Compound 1046]	Emax (SIRT1 [1]; [7]): ≥ 350%
A (EC1.5<1 μM)	≥ 350	O=C(Nc1cccnc1)c1cnc2ccc(N3CCCC(C(F)(F)F)C3)nn12 (stereo not shown) [Compound 932]	–
–	–	Cc1nn2ccc(N3CCC[C@@H]3C(F)(F)F)nc2c1C(=O)Nc1cccc(-c2cnco2)n1 [Compound 1086]	Emax (SIRT1 [1]; [7]): ≥ 350%
B (EC1.5 1-25 μM)	< 350	Cc1nc2ccc(N3CC[C@H](N(C)C)C3)nn2c1C(=O)Nc1cccnn1 [Compound 880]	–
–	< 350	CN1CCN(c2ccc3ncc(C(=O)Nc4cccnn4)n3n2)CC1 [Compound 950]	–
–	< 350	CN1CCN(c2ccc3ncc(C(=O)Nc4cncc(F)c4)n3n2)CC1 [Compound 951]	–
A (EC1.5<1 μM)	≥ 350	Cc1cc(NC(=O)c2c(C)nc3c(OC[C@H](O)CO)cc(-c4ccccc4C(F)(F)F)nn23)cc(C)n1 [Compound 860]	–
–	< 350	O=C(Nc1ccc(F)cn1)c1cnc2ccc(N3CCC(F)(F)CC3)nn12 [Compound 962]	–
B (EC1.5 1-25 μM)	< 350	CN(C)c1cnnc(NC(=O)c2cnc3ccc(N4CC[C@H](F)C4)nn23)c1 [Compound 924]	–
C (EC1.5>25 μM)	< 350	O=C(Nc1cccnn1)c1cnc2ccc(N3CC(F)(F)C3)nn12 [Compound 916]	–
–	–	O=C(Nc1ccccn1)c1cnn2ccc(N3CCC(C(F)(F)F)CC3)nc12 [Compound 1060]	Emax (SIRT1 [1]; [7]): ≥ 350%
–	–	O=C(Nc1cnccn1)c1cnn2ccc(N3CCC(C(F)(F)F)CC3)nc12 [Compound 1061]	Emax (SIRT1 [1]; [7]): ≥ 350%
–	–	Cc1nn2ccc(N3CCC[C@@H]3C(F)(F)F)nc2c1C(=O)Nc1ccncn1 [Compound 1068]	Emax (SIRT1 [1]; [7]): ≥ 350%
C (EC1.5>25 μM)	< 350	O=C(Nc1cnccn1)c1cnc2ccc(N3CC[C@H](F)C3)nn12 [Compound 853]	–
B (EC1.5 1-25 μM)	≥ 350	Cn1ccc(NC(=O)c2cnc3ccc(N4CC[C@H](F)C4)nn23)n1 [Compound 891]	–
–	≥ 350	CC1(C)CCN(c2ccc3ncc(C(=O)Nc4ccccn4)n3n2)C1 [Compound 952]	–
B (EC1.5 1-25 μM)	≥ 350	O=C(Nc1cncc(F)c1)c1cnc2ccc(N3CCC(F)(F)CC3)nn12 [Compound 929]	–
–	–	O=C(Nc1cccnn1)c1cnn2ccc(N3CCC[C@@H]3C(F)(F)F)nc12 [Compound 1079]	Emax (SIRT1 [1]; [7]): ≥ 350%
–	≥ 350	O=C(Nc1ccncn1)c1cnc2ccc(N3CCC[C@H](F)C3)nn12 [Compound 993]	–
B (EC1.5 1-25 μM)	< 350	CO[C@H]1CCN(c2ccc3ncc(C(=O)Nc4ccncc4F)n3n2)C1 [Compound 936]	–
C (EC1.5>25 μM)	< 350	O=C(Nc1ccc(F)cn1)c1cnc2ccc(N3CC(F)(F)C3)nn12 [Compound 914]	–
A (EC1.5<1 μM)	≥ 350	O=C(Nc1ccncc1F)c1cnc2ccc(N3CCCC(C(F)(F)F)C3)nn12 (stereo not shown) [Compound 931]	–
B (EC1.5 1-25 μM)	< 350	O=C(Nc1ccncn1)c1cnc2ccc(N3CCC(F)(F)C3)nn12 [Compound 906]	–
–	–	O=C(Nc1cccc(-c2cnco2)n1)c1cnn2ccc(N3CCC[C@@H]3C(F)(F)F)nc12 [Compound 1081]	Emax (SIRT1 [1]; [7]): ≥ 350%
